Reference: ChEMBL document CHEMBL2169885, “Synthesis and biological evaluation of optically active Ki16425” (Bioorg Med Chem Lett, 2012)
Activity calls are given as the source filed them. The calls are words filed in the database; no cut-off is given here.

These compounds were tested against Lysophosphatidic acid receptor 2 (Homo sapiens) (UniProt Q9HBW0) (assay: Antagonist activity at human LPA2 receptor expressed in HEK293 cells assessed as inhibition of LPA-induced AP-TGF-alpha release treated 5 mins before LPA addition measured after 60 mins).
Chain of Lysophosphatidic acid receptor 2 (Homo sapiens) (Q9HBW0 whole entry): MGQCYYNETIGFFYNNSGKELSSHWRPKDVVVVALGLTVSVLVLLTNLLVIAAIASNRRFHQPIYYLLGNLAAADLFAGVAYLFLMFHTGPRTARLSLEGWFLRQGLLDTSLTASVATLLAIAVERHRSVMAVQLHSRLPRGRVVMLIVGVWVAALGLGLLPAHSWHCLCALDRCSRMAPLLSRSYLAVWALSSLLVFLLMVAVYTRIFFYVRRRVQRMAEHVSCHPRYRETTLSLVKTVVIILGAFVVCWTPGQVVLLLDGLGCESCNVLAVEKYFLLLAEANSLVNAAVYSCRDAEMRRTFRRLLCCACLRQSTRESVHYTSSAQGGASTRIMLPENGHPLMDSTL
Format: functional, cell-based

| inhibition | SMILES |
| --- | --- |
| Active | Cc1noc(-c2ccc(CSCCC(=O)O)cc2)c1NC(=O)OC(C)c1ccccc1Cl (racemic) |
| Active | Cc1noc(-c2ccc(CSCCC(=O)O)cc2)c1NC(=O)O[C@H](C)c1ccccc1Cl |
| Active | Cc1noc(-c2ccc(CSCCC(=O)O)cc2)c1NC(=O)O[C@@H](C)c1ccccc1Cl |

What follows are compounds tested on PC-3 (assay: Antagonist activity at LPA receptor in human PC3 cells assessed as inhibition of LPA-induced cell migration).
Format: functional, cell-based

| SMILES | inhibition |
| --- | --- |
| Cc1noc(-c2ccc(CSCCC(=O)O)cc2)c1NC(=O)OC(C)c1ccccc1Cl (racemic) | Active |
| Cc1noc(-c2ccc(CSCCC(=O)O)cc2)c1NC(=O)O[C@H](C)c1ccccc1Cl | Active |
| Cc1noc(-c2ccc(CSCCC(=O)O)cc2)c1NC(=O)O[C@@H](C)c1ccccc1Cl | Active |
